Values of other authors in patent US6432453B1, “Dietary supplement containing glycerol ester of conjugated linoleic acid and rosemary extract containing carnosic acid” (Metagenics, Inc., priority 2000, dated 2002).
Like-named read-outs stand apart in the source and are kept apart here.

Columns and labels:
[1] = CLA-supplemented subjects, three months, no change of diet
[2] = free fatty acid form

half-life (oxidation) ([2]; 25° C.): 336 h
half-life (oxidation) ([2]; 75° C.): 7 h
Substance: conjugated linoleic acid [CLA]
body fat lost [1]: up to 20%
